Assay results reported in ChEMBL document CHEMBL1140033 (J Med Chem, 2008).
The source made the active and inactive calls. No cut-off for these calls is given here.

The compounds below were run against Rhodopsin (Bos taurus) (UniProt P02699) (assay: Binding affinity to photoactivated rhodopsin in bovine retinal rod outer-segment membranes assessed as induction of extra receptor MII state stabilization at 250 uM by UV/visible difference spectroscopy).
Sequence of Rhodopsin (Bos taurus) (P02699 whole entry): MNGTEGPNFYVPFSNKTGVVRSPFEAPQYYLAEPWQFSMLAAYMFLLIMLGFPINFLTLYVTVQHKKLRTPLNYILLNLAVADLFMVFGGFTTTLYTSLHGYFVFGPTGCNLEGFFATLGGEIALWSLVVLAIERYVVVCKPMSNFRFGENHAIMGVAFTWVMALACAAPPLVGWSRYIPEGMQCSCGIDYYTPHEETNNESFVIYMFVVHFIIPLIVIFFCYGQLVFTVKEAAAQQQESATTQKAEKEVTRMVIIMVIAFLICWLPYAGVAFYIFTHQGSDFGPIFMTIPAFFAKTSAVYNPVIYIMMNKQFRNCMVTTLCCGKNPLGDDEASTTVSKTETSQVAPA
In the case of `CC1(C)[C@@H](O)CC[C@]2(C)[C@H]3C(=O)C=C4C5C[C@@](C)(C(=O)O)CC[C@]5(C)CC[C@@]4(C)[C@]3(C)CC[C@@H]12` (single isomer, unassigned), the Activity is reported as “Active”.
In the case of `C[C@]12CCC(=O)C=C1CC[C@@H]1[C@@H]2[C@@H](O)C[C@@]2(C)[C@H]1CC[C@]2(O)[C@@H](O)CO`, the Activity is reported as “Active”.
For `C[C@H]1[C@H](C)CC[C@]2(C(=O)O)CC[C@]3(C)C(=CC[C@@H]4[C@@]5(C)CC[C@H](O)C(C)(C)[C@@H]5CC[C@]43C)[C@H]12`, the Activity was “Active”.
In the case of `CC1(C)CC[C@]2(C(=O)O)CC[C@]3(C)C(=CC[C@@H]4[C@@]5(C)C[C@H](O)[C@H](O)[C@@](C)(C(=O)O)[C@@H]5CC[C@]43C)[C@@H]2C1`, the Activity is reported as “Active”.
With `CC1(C)[C@@H](O)CC[C@]2(C)[C@H]3C(=O)C=C4[C@@H]5C[C@@](C)(C(=O)O)CC[C@]5(C)CC[C@@]4(C)[C@]3(C)CC[C@@H]12` the Activity was “Active”.
For `CC1(C)CC[C@]2(C(=O)O)CC[C@]3(C)C(=CC[C@@H]4[C@@]5(C)CC[C@H](O)C(C)(C)[C@@H]5CC[C@]43C)[C@@H]2C1`, the Activity was “Active”.
In the case of `C[C@]12CC[C@H]3[C@@H](CCC4=CC(=O)CC[C@@]43C)[C@@H]1CC[C@@H]2CCOS(=O)(=O)c1ccc(Br)cc1`, the Activity is reported as “Active”.

Each compound was assayed against T1, Rhodopsin (Bos taurus, UniProt P02699) (assay: Binding affinity to photoactivated rhodopsin in bovine retinal rod outer-segment membranes assessed as induction of extra receptor MII state stabilization by UV/visible difference spectroscopy).
T1 sequence (P02699 whole entry): as above
Compound `C[C@H]1[C@H](C)CC[C@]2(C(=O)O)CC[C@]3(C)C(=CC[C@@H]4[C@@]5(C)C[C@@H](O)[C@H](O)[C@@](C)(CO)[C@@H]5[C@H](O)C[C@]43C)[C@H]12` [MADECASSIC ACID] has an EC50 of 120 µM.

The compounds below were run against T1, Rhodopsin (assay: Inhibition of bovine retinal rod outer-segment photoactivated rhodopsin-transducer interaction by transducer release assay).
For `C[C@H]1[C@H](C)CC[C@]2(C(=O)O)CC[C@]3(C)C(=CC[C@@H]4[C@@]5(C)C[C@@H](O)[C@H](O)[C@@](C)(CO)[C@@H]5[C@H](O)C[C@]43C)[C@H]12` [MADECASSIC ACID], the IC50 was 180 µM.
